Results published in article PMC6321646, “Evaluation of the Novel Synthetic Tyrosinase Inhibitor (Z)-3-(3-bromo-4-hydroxybenzylidene)thiochroman-4-one (MHY1498) In Vitro and In Silico” (Molecules, 2018).

Molecular target: T1, mushroom tyrosinase (Agaricus bisporus, UniProt C7FF04)
T1 construct: gene PPO3
Assay: dopachrome formation at […] nm, % inhibition at […]
Format: biochemical
Conditions: read-out: 50μM / Mean ± SD (%)

T1 sequence (C7FF04 2-392): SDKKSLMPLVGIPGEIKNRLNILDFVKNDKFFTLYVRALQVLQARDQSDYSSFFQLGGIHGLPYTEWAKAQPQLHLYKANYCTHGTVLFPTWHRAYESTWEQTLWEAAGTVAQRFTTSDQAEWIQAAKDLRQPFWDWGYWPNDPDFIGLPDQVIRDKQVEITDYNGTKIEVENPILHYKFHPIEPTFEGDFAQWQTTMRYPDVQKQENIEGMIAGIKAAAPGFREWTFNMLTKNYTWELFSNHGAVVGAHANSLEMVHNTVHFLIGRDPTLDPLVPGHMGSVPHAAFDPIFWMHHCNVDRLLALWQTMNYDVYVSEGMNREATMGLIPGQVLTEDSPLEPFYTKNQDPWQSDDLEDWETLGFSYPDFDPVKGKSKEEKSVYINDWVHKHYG

inhibition at 50 µM [%]	SMILES
81.6 ± 1	O=C1/C(=C/c2ccc(O)cc2)CSc2ccccc21 [a]
91.5 ± 6.2	COc1ccc(/C=C2\CSc3ccccc3C2=O)cc1O [d]
